Source: US4639444A, “3,5-dialkyl-4,6-diaryl-tetrahydro-2H-13,5-thiadiazine-2-thione derivative, process for its production and antihyperlipidemic agent containing it” (Nissan Chemical Industries Ltd., priority 1984, dated 1987)

Assays:
[1] = system: emulsion-induced hyperlipidemic rats; assay: antihyperlipidemic activity in emulsion-induced hyperlipidemic rats; format: in vivo; details: Rattus norvegicus, po, 72 h, 300 mg/kg daily via stomach tube, 3 days, male S.D. rats, lipids emulsion, versus control group; for change in vivo at 300 mg/kg: "-" = reduction rate, read-out: Increase rate of serum HDL-Chol.; for inhibition in vivo at 300 mg/kg: read-out: Reduction rate of serum Chol.
Description: The antihyperlipidemic activity in emulsion-induced hyperlipidemic rats: Male S. D. rats weighing 80-90 g (4 weeks old) were used. They were devided into groups of 5 to 6 rats each. The test compounds suspended in 0.5% CMC-Na(carboxymethyl cellulose sodium salt) were given to the rats in a daily dose of 4.0 ml/kg (i.e. 300 mg/kg of the test compounds) via stomach tube every 10:00 a.m. After 30 min., lipids emulsion having the following composition was orally given to the rats in an amount of 2.5 ml per rat. During the experimental period of 3 days, the rats were fed on a standard commercial diet and water ad libitum. […] The total cholesterol and HDL cholesterol were measured. The weight of the liver was measured. To the control group, only the aqueous CMC-Na solution and the lipids emulsion were given. The fractionation of lipoproteins was conducted by a dextran sulfate-MgCl2 precipitation method. Cholesterol in serum was measured by means of a cholesterol measuring kit (Cholesterol C-Test Wako, manufactured by Wako Junyaku Co., Ltd.), and cholesterol in HDL was measured by means of NC Hi-Set, manufactured by Nippon Chemiphar Co., Ltd. In the following description, cholesterol is referred to as "Chol". Further, the reduction rate of Chol was calculated by the following equation. [formula] where A is the amount of serum Chol (mg/dl) of the control group, and B is the amount of serum Chol (mg/dl) of the group to which the therapeutic agent was administered. Likewise, the increase rate of serum HDL-Chol was calculated by the following equation. [formula] where C is the amount of serum HDL-Chol (mg/dl) of the control group, and D is the amount of serum HDL-Chol (mg/dl) of the group to which the therapeutic agent was administered.

[2] = animal experiments, Svoboda and Azarnoff, Cancer Res. 39, 3419 (1979); cited from earlier work
[3] = literature, and its derivatives; cited from earlier work
[4] = acute toxicity (mortality after seven days); details: mouse, in vivo, po, 4000 mg/kg p.o., male ddY mice
Description: The test compounds suspended in 0.5% CMC-Na were administered p.o. to male ddY mice. The acute toxicity was determined based on the mortality after seven days. In respect of the Compound Nos. 1, 2, 3, 4, 6, 7, 10, 12 and 13 of the present invention, the mortality was 0% even at a dose of as high as 4000 mg/kg by oral administration.

Structure (SMILES) | change in vivo at 300 mg/kg [1] [%] | inhibition in vivo at 300 mg/kg [1] [%] | hepatic carcinoma [2] | side effects reported [3] | mortality at 168 h [4] [%]
CCOC(=O)C(C)(C)Oc1ccc(Cl)cc1 [Clofibrate, reference compound] | -8 | 45 | brings about hepatic carcinoma on animal experiments | myalgia or hepatic insufficiency,and they are likely to lead to gallstone formation | 
COc1ccc(C2SC(=S)N(C)C(c3ccc(OC)cc3)N2C)cc1 (stereo not shown) [Compound No. 1, 3,5-Dimethyl-4,6-di(p-methoxyphenyl)-tetrahydro-2H-1,3,5-thiadiazine-2-thione] | 53 | 42 |  |  | 0
COc1cccc(C2SC(=S)N(C)C(c3cccc(OC)c3)N2C)c1 (stereo not shown) [Compound No. 2] | 25 | 41 |  |  | 0
COc1ccccc1C1SC(=S)N(C)C(c2ccccc2OC)N1C (stereo not shown) [Compound No. 3] | 33 | 32 |  |  | 0
Cc1ccc(C2SC(=S)N(C)C(c3ccc(C)cc3)N2C)cc1 (stereo not shown) [Compound No. 4] | 99 | 49 |  |  | 0
Cc1cccc(C2SC(=S)N(C)C(c3cccc(C)c3)N2C)c1 (stereo not shown) [Compound No. 5] | 52 | 44 |  |  | 
Cc1ccccc1C1SC(=S)N(C)C(c2ccccc2C)N1C (stereo not shown) [compound 6] | 61 | 40 |  |  | 0
CCOc1ccccc1C1SC(=S)N(C)C(c2ccccc2OCC)N1C (stereo not shown) [compound 7] | 14 | 37 |  |  | 0
CN1C(=S)SC(c2ccc(F)cc2)N(C)C1c1ccc(F)cc1 (stereo not shown) [compound 8] | 37 | 26 |  |  | 
CC(C)c1ccc(C2SC(=S)N(C)C(c3ccc(C(C)C)cc3)N2C)cc1 (stereo not shown) [compound 9] | 56 | 30 |  |  | 
CN1C(=S)SC(c2ccc(Oc3ccccc3)cc2)N(C)C1c1ccc(Oc2ccccc2)cc1 (stereo not shown) [compound 10] | -23 | 53 |  |  | 0
CSc1ccc(C2SC(=S)N(C)C(c3ccc(SC)cc3)N2C)cc1 (stereo not shown) [compound 11] | 53 | 13 |  |  | 
COc1ccc(C2SC(=S)N(C)C(c3ccc(OC)cc3OC)N2C)c(OC)c1 (stereo not shown) [compound 12] | 46 | 31 |  |  | 0
CN1C(=S)SC(c2ccc3c(c2)OCO3)N(C)C1c1ccc2c(c1)OCO2 (stereo not shown) [compound 13] | 54 | 52 |  |  | 0
COc1cc(C2SC(=S)N(C)C(c3cc(OC)c(OC)c(OC)c3)N2C)cc(OC)c1OC (stereo not shown) [compound 14] | 6 | 19 |  |  | 
CCN1C(=S)SC(c2ccccc2)N(CC)C1c1ccccc1 (stereo not shown) [compound 15] | 31 | 45 |  |  | 
COc1cccc(C2SC(=S)N(C)C(c3cccc(OC)c3OC)N2C)c1OC (stereo not shown) [compound 16] | 44 | 34 |  |  | 
O=C(O)c1cccnc1 [nicotinic acid] |  |  |  | flashing or gastroenteric troubles | 
